Patent publication US8501755B2, “Tetrahydropyridothienopyrimidine compounds and methods of use thereof” (Bayer Intellectual Property GmbH, priority 2006, dated 2013)

How the values were obtained:
Type in all cases: cell-based
[1] = test system: N87; test: In vitro tumor cell proliferation assay (Cell Titer-Glo) in N87 cells; settings: N87 human gastric carcinoma overexpressing HER2 and HER1; 72 hours exposure; read-out: IC50, activities in N87 cell lines
Source text: (§1) The tumor cell proliferation assay used to test the compounds of the present invention involves a readout called Cell Titer-Glow® Luminescent Cell Viability Assay developed by Promega® (Cunningham, BA “A Growing Issue: Cell Proliferation Assays, Modern kits ease quantification of cell growth” The Scientist 2001, 15(13), 26, and Crouch, S P et al., “The use of ATP bioluminescence as a measure of cell proliferation and cytotoxicity” Journal of Immunological Methods 1993, 160, 81-88), that measures inhibition of cell proliferation. Generation of a luminescent signal corresponds to the amount of ATP present, which is directly proportional to the number of metabolically active (proliferating) cells. A431 cells [human epidermoid carcinoma, ATCC # HTB-20, overexpressing HER1 (EGFR, ErbB1)] and N87 [human gastric carcinoma, ATCC # CRL-1555, overexpressing HER2 (ErbB2) and HER1 (EGFR, ErbB1)] were plated at a density of 2.5×10^3 cells/well in 96 well black-clear bottom tissue culture plates in RPMI media with 10% Fetal Bovine Serum and incubated at 37° C. Twenty-four hours later, test compounds are added at a final concentration range from as high 100 μm to as low […] depend on the activities of the tested compounds in serial dilutions at a final DMSO concentration of 0.1%. Cells were incubated for 72 hours at 37° C. in complete growth media after addition of the test compound. After 72 hours of drug exposure, the plates were equilibrated to room temperature for approximately 30 min. Then, using a Promega Cell Titer Glo Luminescent® assay kit, lysis buffer containing 100 microliters of the enzyme luciferase and its substrate, luciferin mixture, was added to each well. The plates were mixed for 2 min on orbital shaker to ensure cell lysis and incubated for 10 min at room temperature to stabilize luminescence signal. The samples were read on VICTOR2 using Luminescence protocol, and analyzed with Analyze5 software to generate IC50 values.

[2] = test system: H1975 cells; test: In vitro tumor cell proliferation assay (Cell Titer-Glo) in H1975 cells; settings: NCI-H1975; H1975 human NSCLC expressing mutant HER1 (L858R,T790M); 72 hours exposure; read-out: IC50, activities in H 1975 cell lines
Source text: The tumor cell proliferation assay used to test the compounds of the present invention involves a readout called Cell Titer-Glow® Luminescent Cell Viability Assay developed by Promega® (Cunningham, BA “A Growing Issue: Cell Proliferation Assays, Modern kits ease quantification of cell growth” The Scientist 2001, 15(13), 26, and Crouch, S P et al., “The use of ATP bioluminescence as a measure of cell proliferation and cytotoxicity” Journal of Immunological Methods 1993, 160, 81-88), that measures inhibition of cell proliferation. Generation of a luminescent signal corresponds to the amount of ATP present, which is directly proportional to the number of metabolically active (proliferating) cells.
H1975 cells [human non small cell lung carcinoma, ATCC # CRL-5908, expressing mutant HER1 [(EGFR, ErbB1)(L858R,T790M] were plated at a density of 3×10^3 cells/well in 96 well black-clear bottom tissue culture plates in RPMI media with 10% Fetal Bovine Serum and incubated at 37° C. Twenty-four hours later, test compounds are added at a final concentration range from as high 10 uM to as low 64 pM depending on the activities of the tested compounds in serial dilutions at a final DMSO concentration of 0.1%. Cells were incubated for 72 hours at 37° C. in complete growth media after addition of the test compound. After 72 hours of drug exposure, the plates were equilibrated to room temperature for approximately 30 min. Then, using a Promega Cell Titer Glo Luminescent® assay kit, lysis buffer containing 100 microliters of the enzyme luciferase and its substrate, luciferin mixture, was added to each well. The plates were mixed for 2 min on orbital shaker to ensure cell lysis and incubated for 10 min at room temperature to stabilize luminescence signal. The samples were read on VICTOR2 using Luminescence protocol, and analyzed with Analyze5 software to generate IC50 values.

[3] = test system: A431 cells; test: In vitro tumor cell proliferation assay (Cell Titer-Glo) in A431 cells; settings: Homo sapiens, A-431, 72 h, A431 human epidermoid carcinoma overexpressing HER1; 72 hours exposure; read-out: IC50, activities in A431 cell lines
Source text: as §1

Structure (SMILES) | IC50 [1] [nM] | IC50 [2] [nM] | IC50 [3] [nM]
CN(C)C/C=C/C(=O)N1CCc2c(sc3ncnc(Nc4ccc(OCc5cccc(F)c5)c(Cl)c4)c23)C1 [Example 11, N-{3-chloro-4-[(3-fluorobenzyl)oxy]phenyl}-7-[(2E)-4-(dimethylamino)but-2-enoyl]-5,6,7,8-tetrahydropyrido[4′,3′:4,5]thieno[2,3-d]pyrimidin-4-amine] | < 200 | 1000 to 10000 | < 200
O=C(/C=C/CN1CCCCC1)N1CCc2c(sc3ncnc(Nc4ccc(F)c(Cl)c4)c23)C1 [Example 12, N-(3-chloro-4-fluorophenyl)-7-[(2E)-4-piperidin-1-ylbut-2-enoyl]-5,6,7,8-tetrahydropyrido[4′,3′:4,5]thieno[2,3-d]pyrimidin-4-amine] | < 200 | 200 to 1000 | < 200
CCN(CC)C/C=C/C(=O)N1CCc2c(sc3ncnc(Nc4ccc(OCc5cccc(F)c5)c(Cl)c4)c23)C1 [Example 13, N-{3-chloro-4-[(3-fluorobenzyl)oxy]phenyl}-7-[(2E)-4-(diethylamino)but-2-enoyl]-5,6,7,8-tetrahydropyrido[4′,3′:4,5]thieno[2,3-d]pyrimidin-4-amine] | < 200 | 1000 to 10000 | < 200
CN1CCN(C/C=C/C(=O)N2CCc3c(sc4ncnc(Nc5ccc(OCc6cccc(F)c6)c(Cl)c5)c34)C2)CC1 [Example 14, N-{3-chloro-4-[(3-fluorobenzyl)oxy]phenyl}-7-[(2E)-4-(4-methylpiperazin-1-yl)but-2-enoyl]-5,6,7,8-tetrahydropyrido[4′,3′:4,5]thieno[2,3-d]pyrimidin-4-amine] | < 200 | 1000 to 10000 | < 200
C#Cc1cccc(Nc2ncnc3sc4c(c23)CCN(C(=O)/C=C/CN2CCOCC2)C4)c1 [Example 15, N-(3-ethynylphenyl)-7-[(2E)-4-morpholin-4-ylbut-2-enoyl]-5,6,7,8-tetrahydropyrido[4′,3′:4,5]thieno[2,3-d]pyrimidin-4-amine] | < 200 | 1000 to 10000 | < 200
C#Cc1cccc(Nc2ncnc3sc4c(c23)CCN(C(=O)/C=C/CN(CC)CC)C4)c1 [Example 16, 7-[(2E)-4-(diethylamino)but-2-enoyl]-N-(3-ethynylphenyl)-5,6,7,8-tetrahydropyrido[4′,3′:4,5]thieno[2,3-d]pyrimidin-4-amine] | < 200 | 200 to 1000 | < 200
C#Cc1cccc(Nc2ncnc3sc4c(c23)CCN(C(=O)/C=C/CN(C)C)C4)c1 [Example 17, 7-[(2E)-4-(dimethylamino)but-2-enoyl]-N-(3-ethynylphenyl)-5,6,7,8-tetrahydropyrido[4′,3′:4,5]thieno[2,3-d]pyrimidin-4-amine] | < 200 | 200 to 1000 | < 200
O=C(/C=C/CN1CCCCC1)N1CCc2c(sc3ncnc(Nc4ccc(OCc5cccc(F)c5)c(Cl)c4)c23)C1 [Example 19, N-{3-chloro-4-[(3-fluorobenzyl)oxy]phenyl}-7-[(2E)-4-piperidin-1-ylbut-2-enoyl]-5,6,7,8-tetrahydropyrido[4′,3′: 4,5]thieno[2,3-d]pyrimidin-4-amine] | < 200 | 1000 to 10000 | < 200
C#Cc1cccc(Nc2ncnc3sc4c(c23)CCN(C(=O)/C=C/CN2CCCCC2)C4)c1 [Example 20, N-(3-ethynylphenyl)-7-[(2E)-4-piperidin-1-ylbut-2-enoyl]-5,6,7,8-tetrahydropyrido [4′,3′:4,5]thieno[2,3-d]pyrimidin-4-amine] | < 200 | 200 to 1000 | < 200
O=C(/C=C/CN1CCCC1)N1CCc2c(sc3ncnc(Nc4ccc(F)c(Cl)c4)c23)C1 [Example 21, N-(3-chloro-4-fluorophenyl)-7-[(2E)-4-pyrrolidin-1-ylbut-2-enoyl]-5,6,7,8-tetrahydropyrido [4′,3′:4,5]thieno[2,3-d]pyrimidin-4-amine] | < 200 | < 200 | < 200
C=CC(=O)N1CCc2c(sc3ncnc(Nc4ccc(F)c(Cl)c4)c23)C1 [Example 22, 7-acryloyl-N-(3-chloro-4-fluorophenyl)-5,6,7,8-tetrahydropyrido [4′,3′:4,5]thieno[2,3-d]pyrimidin-4-amine] | < 200 | 200 to 1000 | < 200
C/C=C/C(=O)N1CCc2c(sc3ncnc(Nc4ccc(F)c(Cl)c4)c23)C1 [Example 23, 7-[(2E)-but-2-enoyl]-N-(3-chloro-4-fluorophenyl)-5,6,7,8-tetrahydropyrido [4′,3′:4,5]thieno[2,3-d]pyrimidin-4-amine] | 200 to 5000 | 1000 to 10000 | 1000 to 10000
O=C(/C=C/CN1CCCC1)N1CCc2c(sc3ncnc(Nc4ccc(OCc5ccccn5)c(Cl)c4)c23)C1 [Example 24, N-[3-chloro-4-(pyridin-2-ylmelhoxy)phenyl]-7-[(2E)-4-pyrrolidin-1-ylbut-2-enoyl]-5,6,7,8-tetrahydropyrido [4′,3′:4,5]thieno[2,3-d]pyrimidin-4-amine] | < 200 | < 200 | 200 to 1000
O=C(/C=C/CN1CCCC1)N1CCc2c(sc3ncnc(Nc4ccc(OCc5cccc(F)c5)c(Cl)c4)c23)C1 [Example 25, N-{3-chloro-4-[(3-fluorobenzyl)oxy]phenyl}-7-[(2E)-4-pyrrolidin-1-ylbut-2-enoyl]-5,6,7,8-tetrahydropyrido [4′,3′:4,5]thieno[2,3-d]pyrimidin-4-amine] | < 200 | 200 to 1000 | 200 to 1000
C#Cc1cccc(Nc2ncnc3sc4c(c23)CCN(C(=O)/C=C/CN2CCCC2)C4)c1 [Example 26, N-(3-ethynylphenyl)-7-[(2E)-4-pyrrolidin-1-ylbut-2-enoyl]-5,6,7,8-tetrahydropyrido [4′,3′:4,5]thieno[2,3-d]pyrimidin-4-amine] | < 200 | < 200 | < 200
C#Cc1cccc(Nc2ncnc3sc4c(c23)CCN(C(=O)C=C)C4)c1 [Example 27, 7-acryloyl-N-(3-ethynylphenyl)-5,6,7,8-tetrahydropyrido [4′,3′:4,5]thieno[2,3-d]pyrimidin-4-amine] | < 200 | 200 to 1000 | 1000 to 10000
C=CC(=O)N1CCc2c(sc3ncnc(Nc4ccc(OCc5ccccn5)c(Cl)c4)c23)C1 [Example 28] | < 200 | < 200 | 1000 to 10000
CN1CCC=C(C(=O)N2CCc3c(sc4ncnc(Nc5ccc(F)c(Cl)c5)c34)C2)C1 [Example 29, N-(3-chloro-4-fluorophenyl)-7-[(1-methyl-1,2,5,6-tetrahydropyridin-3-yl)carbonyl]5,6,7,8-tetrahydropyrido [4′,3′:4,5]thieno[2,3-d]pyrimidin-4-amine] | 200 to 5000 | 1000 to 10000 | 1000 to 10000
CN1CCC=C(C(=O)N2CCc3c(sc4ncnc(Nc5ccc(OCc6ccccn6)c(Cl)c5)c34)C2)C1 [Example 30, N-[3-chloro-4-(pyridin-2-ylmethoxy)phenyl]-7-[(1-methyl-1,2,5,6-tetrahydropyridin-3-yl)carbonyl]-5,6,7,8-tetrahydropyrido [4′,3′:4,5]thieno[2,3-d]pyrimidin-4-amine] | 200 to 5000 | 1000 to 10000 | 1000 to 10000
